From ChEMBL document CHEMBL3588773, “Volume of Distribution in Drug Design” (J Med Chem, 2015)

Columns and labels:
[1] = Volume of distribution at steady state in Sprague-Dawley rat at 2.5 mg/kg; type: ADME, organism-based; conditions: in vivo, read-out: Vdss
Heat shock protein HSP90 = Heat shock protein HSP90 (Homo sapiens, UniProt P07900+P08238); assay: Inhibition of human recombinant HSP90 by scintillation proximity competition binding assay; type: protein assay
[2] = Lipophilicity, log P of the compound; conditions: octanol/water
[3] = Distribution coefficient, log D of the compound; type: physicochemical; conditions: octanol/water
Homo sapiens [4] = species: Homo sapiens; assay: Unbound volume of distribution at steady state in human; type: ADME, organism-based; conditions: in vivo
Homo sapiens [5] = species: Homo sapiens; assay: Unbound intrinsic clearance in human; type: ADME, organism-based; conditions: in vivo
[6] = Volume of distribution at steady state in human; conditions: in vivo
Plasma = assay: (§1) Unbound fraction in human plasma; type: ADME, cell-free
[7] = Dissociation constant of the compound; type: physicochemical
[8] = as §1; type: ADME, cell-free
[9] = Volume of distribution at steady state in mouse; type: ADME, organism-based; conditions: in vivo, read-out: Vdss
[10] = Volume of distribution at steady state in wild type mouse; type: ADME, organism-based; conditions: in vivo, read-out: Vdss

SMILES: CC(C)(CC(F)(F)F)NC(=O)N1Cc2nc(N)nc(-c3c(Cl)cc(Cl)cc3OCCn3cccn3)c2C1
- Vd [1]: 2 L/kg
- Ki (Heat shock protein HSP90): 9.7 nM

SMILES: CC(C)(CC(F)(F)F)NC(=O)N1Cc2nc(N)nc(-c3c(Cl)cc(Cl)cc3OCCn3cc(F)cn3)c2C1
- Vd [1]: 13 L/kg
- Ki (Heat shock protein HSP90): 2.1 nM

SMILES: CC(F)(F)CC(C)(C)NC(=O)N1Cc2nc(N)nc(-c3c(Cl)cc(Cl)cc3OCCn3cccn3)c2C1
- Vd [1]: 1.8 L/kg
- Ki (Heat shock protein HSP90): 6.6 nM

SMILES: CC(F)(F)CC(C)(C)NC(=O)N1Cc2nc(N)nc(-c3c(Cl)cc(Cl)cc3OCCn3cc(F)cn3)c2C1
- Vd [1]: 10 L/kg
- Ki (Heat shock protein HSP90): 1.7 nM

SMILES: CC(C)(NC(=O)N1Cc2nc(N)nc(-c3c(Cl)cc(Cl)cc3OCCn3cccn3)c2C1)C12CC(C1)C2
- Vd [1]: 1.8 L/kg
- Ki (Heat shock protein HSP90): 7.3 nM

SMILES: CC(C)(NC(=O)N1Cc2nc(N)nc(-c3c(Cl)cc(Cl)cc3OCCn3cc(F)cn3)c2C1)C12CC(C1)C2
- Vd [1]: 11 L/kg
- Ki (Heat shock protein HSP90): 3.3 nM

SMILES: CCOC(=O)C1=C(COCCN)NC(C)=C(C(=O)OC)C1c1ccccc1Cl (stereo not given) [AMLODIPINE]
- logP [2]: 3.3
- logD ([3]; read-out: logD): 1.2

SMILES: CC(C)NCC(O)COc1ccc(CCOCC2CC2)cc1 (stereo not given) [BETAXOLOL]
- Vduss (Homo sapiens [4]): 13 L/kg
- logD [3]: 1.1
- CL free (Homo sapiens [5]): 13 mL/min/kg

SMILES: CN(C)CCC(c1ccc(Cl)cc1)c1ccccn1 (stereo not given) [CHLORPHENIRAMINE]
- Vduss (Homo sapiens [4]): 178 L/kg
- Vd [6]: 10 L/kg
- logP [2]: 3.4
- logD ([3]; read-out: logD): 1.5
- Fu (Plasma): 0.056

SMILES: OC(Cn1cncn1)(Cn1cncn1)c1ccc(F)cc1F [FLUCONAZOLE]
- Vduss (Homo sapiens [4]): 0.84 L/kg

SMILES: CNCCC(Oc1ccc(C(F)(F)F)cc1)c1ccccc1 (stereo not given) [FLUOXETINE]
- pKa [7]: 10.5
- Vduss (Homo sapiens [4]): 71 L/kg
- Vd [6]: 4.3 L/kg
- fraction unbound [8]: 0.06

SMILES: O=C(CCCN1CCC(O)(c2ccc(Cl)cc2)CC1)c1ccc(F)cc1 [HALOPERIDOL]
- Vd [9]: 0.6 L/kg

SMILES: COc1ccc2c(c1)c(CC(=O)O)c(C)n2C(=O)c1ccc(Cl)cc1 [INDOMETHACIN]
- Vduss (Homo sapiens [4]): 9.6 L/kg
- logD ([3]; read-out: logD): 0.7
- Fu (Plasma): 0.01

SMILES: CC(C(=O)O)c1cccc(C(=O)c2ccccc2)c1 (stereo not given) [KETOPROFEN]
- logP [2]: 2.9
- logD ([3]; read-out: logD): 0.2

SMILES: COCCc1ccc(OCC(O)CNC(C)C)cc1 (stereo not given) [METOPROLOL]
- Vduss (Homo sapiens [4]): 4 L/kg
- logD ([3]; read-out: logD): -0.1
- CL free (Homo sapiens [5]): 33 mL/min/kg

SMILES: COCCOC(=O)C1=C(C)NC(C)=C(C(=O)OC(C)C)C1c1cccc([N+](=O)[O-])c1 (stereo not given) [NIMODIPINE]
- logP [2]: 4.2

SMILES: CC[C@H](C)C(=O)O[C@H]1C[C@H](O)C=C2C=C[C@H](C)[C@H](CC[C@@H](O)C[C@@H](O)CC(=O)O)[C@H]21 [PRAVASTATIN]
- Vd [10]: 0.27 L/kg

SMILES: CCC(C)(C)C(=O)O[C@H]1C[C@@H](C)C=C2C=C[C@H](C)[C@H](CC[C@@H]3C[C@@H](O)CC(=O)O3)[C@H]21 [SIMVASTATIN]
- Vd [10]: 14 L/kg

SMILES: O=c1n(CCCN2CCN(c3cccc(Cl)c3)CC2)nc2ccccn12 [TRAZODONE]
- Vd [9]: 18 L/kg
